“And” between values parts separate entries of the source, which are not always exact repeats. Identical values can stand only once. Like-named read-outs stand apart in the source and are kept apart here.
Key:
[1] = molecular target: DRB1*0701 (Homo sapiens, UniProt P01903+P01911, A100R/A102G/A103Q/D57E/D86V/E43K/F76Y/K127E/L162R/M171V/P40G/Q125H/Q99D/R33Q/R42Y/R54Q/S133A/S66F/T210M/V115G/Y107V/Y59L/Y89S); assay: HLA class II peptide-binding assay (competitive ELISA); conditions: immunopurified HLA, reference peptide IC50 5 nM, ratio ≤20 high affinity, 20–200 moderate affinity
[2] = molecular target: DRB1*1101 (Homo sapiens, UniProt P01903+P01911, A100R/A169T/A87E/I96F/K41T/L162R/M171V/P40S/Q125H/Q178H/Q39Y/Q99D/R42S/S66Y/T262R/V115G/W38E); assay: as above; conditions: immunopurified HLA, reference peptide IC50 50 nM, ratio ≤20 high affinity, 20–200 moderate affinity
[3] = molecular target: DRB1*0301 (Homo sapiens, UniProt P01903+P01911, A100K/A102G/A103R/A169T/F55Y/I96L/K41T/L162R/M171V/P40S/Q125H/Q178H/Q39Y/R42S/S66N/T106N/T262R/W38E/Y61H); assay: as above; conditions: immunopurified HLA, reference peptide IC50 423 nM, ratio ≤20 high affinity, 20–200 moderate affinity
[4] = molecular target: DRB1*0101 (Homo sapiens, UniProt P01903+P01911, A100R/D57E/F55L/F60I/F76Y/I96L/L162R/M171V/P40L/Q125E/R42F/V115G/Y59C); assay: as above; conditions: immunopurified HLA, reference peptide IC50 3 nM, ratio ≤20 high affinity, 20–200 moderate affinity
[5] = tested on: CD25-depleted PBMCs (CD4+ T cells); assay: Generation of peptide-specific CD4+ T cell lines with the split-well method (frequency of specific TCLs); assay type: cell-based, human; conditions: for positive specific TCLs out of 30 replicate wells per subject: peptides at 2 µM, 10^5 PBMCs per well, mean±SEM, SEM; for estimated average precursor frequency of peptide-specific T cells: estimated from TCL frequencies, assuming 30% CD4+ T cells in PBMCs
Procedure: After isolating peripheral-blood mononuclear cells (PBMCs) by Ficoll-Paque Plus density gradient centrifugation (GE Healthcare Biosciences, Uppsala, Sweden), CD4^+CD25high regulatory T cells were depleted with anti-CD25-magnetic beads (Miltenyi Biotec, Bergisch Gladbach, Germany), to enhance the induction of both autoreactive and allergen-reactive CD4^+ T cell responses, as previously described, [34].The CD25-depleted PBMCs were seeded in 96-well U-bottomed plates (Corning Incorporated, Corning, USA; 10^5 PBMCs per well) in the presence of pooled Can f 1 or TL peptides (each peptide at 2 µM, 30 wells per a peptide pool), or the HA peptide (30 wells) in a 150 µl volume of RPMI 1640 culture medium supplemented with 2 mM L-glutamine, 20 µM 2-mercaptoethanol, 1 mM sodium pyruvate, nonessential amino acids, 100 IU/ml penicillin, 100 µg/ml streptomycin, 10 mM HEPES (all from Lonza, Verviers, Belgium) and 5% inactivated human AB serum (Sigma-Aldrich, St. Louis, MO). On day 5, 50 µl of fresh medium supplemented with 10 IU/ml of IL-2 (Strathmann Biotech, Hannover, Germany) was added to the cultures. On day 7, half of the culture medium was replaced without IL-2. On day 10, half of the cells in the cultures were split into daughter plates for testing specificity by stimulating the cells with or without the pooled peptides (each peptide at 2 µM) together with autologous γ-irradiated (3000 rad) PBMCs (5×10^5) as antigen-presenting cells. After an incubation of 72 h, [3H]thymidine was added (1 µCi per well; GE Healthcare, Little Chalfont, UK), and after an additional 16 h, the cells were harvested onto glass fiber filters on day 14 (Wallac, Turku, Finland). Radioactivity was measured by scintillation counting (Wallac Micro Beta 1540) and the results were expressed as counts per minute (CPM). The stimulation indices (SI; CPM in the presence of antigen divided by CPM in the absence of antigen) and CPM differences between stimulated and unstimulated wells (ΔCPM) were determined. On the same day, positive cultures (ΔCPM>2000 and SI>2) were restimulated in 48-well plates with autologous γ-irradiated PBMCs (10^6/well), 2 µM of the peptides and 25 IU/ml of IL-2. On day 28, the established TCLs were propagated once more with peptides, IL-2 and PBMCs. After stimulations, half of the culture medium was replaced with fresh medium supplemented with IL-2 every 2–3 days. The peptide specificity of TCLs was defined as described below.
T cell proliferation assays were set in duplicates in 96-well U-bottomed plates with 2.5×10^4 cultured T cells, 5×10^4 autologous γ-irradiated (3000 rad) PBMCs as APCs, and antigens as indicated. In order to determine the epitope specificity of the established TCLs induced with peptide pools, the T cell lines were tested with each of the three individual peptides in the pool at 10 µM on day 28. Proliferation was measured by radionuclide uptake (see above). […] On day 42, peptide-specific TCLs were tested with individual Can f 1 peptides, as well as their TL homologues, at several concentrations up to 10 µM. The functional T cell receptor (TCR) avidities of the TCLs for a peptide were assessed by determining effective concentration 50 (EC50) values (i.e., the concentration of a peptide needed to induce a half-maximal proliferative response) from the dose-response curves of individual TCLs.

[6] = tested on: DRB5; assay: HLA class II peptide-binding assay (competitive ELISA); design: species or system human
[7] = tested on: DRB3; assay: as above; design: species or system human
[8] = tested on: DRB4; assay: as above; design: species or system human
[9] = molecular target: DRB1*0401 (Homo sapiens, UniProt P01903+P01911, A100K/A169T/F76Y/I96L/K127E/L162R/M171V/N62H/P40V/Q125Y/R42H/S133A/S149N/S66Y/V115G/V209L/W38E); assay: as above; conditions: immunopurified HLA, reference peptide IC50 8 nM, ratio ≤20 high affinity, 20–200 moderate affinity
[10] = molecular target: DRB1*1301 (Homo sapiens, UniProt P01903+P01911, A100E/A169T/K41T/L162R/M171V/P40S/Q125H/Q178H/Q39Y/Q99D/R42S/S66N/T262R/W38E/Y61H); assay: as above; conditions: immunopurified HLA, reference peptide IC50 208 nM, ratio ≤20 high affinity, 20–200 moderate affinity
[11] = molecular target: DRB1*1501 (Homo sapiens, UniProt P01903+P01911); assay: as above; conditions: immunopurified HLA, reference peptide IC50 775 nM, ratio ≤20 high affinity, 20–200 moderate affinity
[12] = tested on: peptide-specific CD4+ T cell lines; assay: Proliferation assay, functional TCR avidity (EC50) of peptide-specific TCLs; assay type: cell-based, human
[13] = DRB5, competitive ELISA, immunopurified HLA, reference peptide IC50 7 nM, ratio ≤20 high affinity, 20–200 moderate affinity
[14] = DRB3, competitive ELISA, immunopurified HLA, reference peptide IC50 60 nM, ratio ≤20 high affinity, 20–200 moderate affinity
[15] = DRB4, competitive ELISA, immunopurified HLA, reference peptide IC50 8 nM, ratio ≤20 high affinity, 20–200 moderate affinity

Sequence | relative binding ratio (IC50 of the test peptide divided by IC50 of the reference peptide) [1] | relative binding ratio (IC50 of the test peptide divided by IC50 of the reference peptide) [2] | relative binding ratio (IC50 of the test peptide divided by IC50 of the reference peptide) [3] | relative binding ratio (IC50 of the test peptide divided by IC50 of the reference peptide) [4] | positive specific TCLs out of 30 replicate wells per subject ([5]; allergic subjects) [%] | positive specific TCLs out of 30 replicate wells per subject ([5]; nonallergic subjects) [%] | relative binding ratio (IC50 of the test peptide divided by IC50 of the reference peptide) [6, 13] | relative binding ratio (IC50 of the test peptide divided by IC50 of the reference peptide) [7, 14] | relative binding ratio (IC50 of the test peptide divided by IC50 of the reference peptide) [8, 15] | relative binding ratio (IC50 of the test peptide divided by IC50 of the reference peptide) [9] | relative binding ratio (IC50 of the test peptide divided by IC50 of the reference peptide) [10] | relative binding ratio (IC50 of the test peptide divided by IC50 of the reference peptide) [11] | percentage of high-avidity (EC50<0.1 µM) TCLs [12] | estimated average precursor frequency of peptide-specific T cells ([5]; allergic subjects) [per 10^6 CD4^+ T cells] | estimated average precursor frequency of peptide-specific T cells ([5]; nonallergic subjects) [per 10^6 CD4^+ T cells] | relative binding ratio (IC50 of the test peptide divided by IC50 of the reference peptide) [6] | relative binding ratio (IC50 of the test peptide divided by IC50 of the reference peptide) [7] | relative binding ratio (IC50 of the test peptide divided by IC50 of the reference peptide) [8]
PGKYTAYEGQRVVFIQ [pC4, Can f 1 peptide p73–88] | 1 | 133 | 13 | 1 | 5.0±1.15 | 4.2±1.61 | 14 | 61 | 722 | 82 | 56 | 0.4 | – | – | – | – | – | –
PKYVKQNTLKLAT [HA, influenza hemagglutinin (HA) peptide (amino acids 306–318), viral control peptide, reference compound] | – | – | – | – | 12.68±10.98 | 8.60±13.37 | – | – | – | – | – | – | 25.0% and 22.6% | 4.2 | 2.9 | 1 | > 167 | > 1 179
LEAKVTMLISGRCQEVK [pTL3, Tear lipocalin peptide p49–65] | 0.2 | 5 | 0.4 | 2 | 1.89±0.57 | 4.2±0.68 | 4 | 8 | 312 | 82 | 3 | 1 | – | – | – | – | – | –

From PMC4038554, “Human CD4^+ T Cell Responses to the Dog Major Allergen Can f 1 and Its Human Homologue Tear Lipocalin Resemble Each Other” (PLoS ONE, 2014)
